Measured values reported in ChEMBL document CHEMBL3600317, “In silico investigation of FOXM1 binding and novel inhibitors in epithelial ovarian cancer” (Bioorg Med Chem, 2015).
Calls of active or inactive are those of the source. The calls are words filed in the database; no cut-off is given here.

Key:
SK-OV-3 [1] = experiment: Cytotoxicity against human SKOV3 cells at 1 nM to 100 uM after 72 hrs by sulforhodamine B assay; assay type: functional, cell-based
ES2 [2] = experiment: Cytotoxicity against human ES2 cells at 1 nM to 100 uM after 72 hrs by sulforhodamine B assay; assay type: functional, cell-based
OVCAR-3 [3] = experiment: Cytotoxicity against human OVCAR3 cells at 1 nM to 100 uM after 72 hrs by sulforhodamine B assay; assay type: functional, cell-based
SK-OV-3 [4] = experiment: Inhibition of CDC25B mRNA expression in human SKOV3 cells at 1 uM by RT-PCR analysis; assay type: functional, cell-based
OVCAR-3 [5] = experiment: Cytotoxicity against human OVCAR3 cells after 72 hrs by sulforhodamine B assay; assay type: functional, cell-based; settings: OVCAR-3, 72 h
SK-OV-3 [6] = experiment: Inhibition of CCNB1 mRNA expression in human SKOV3 cells at 1 uM by RT-PCR analysis; assay type: functional, cell-based
SK-OV-3 [7] = experiment: Inhibition of CCNB1 protein expression in human SKOV3 cells at 1 uM by Western blot analysis; assay type: functional, cell-based
ES2 [8] = experiment: Inhibition of CCNB1 mRNA expression in human ES2 cells at 1 uM by RT-PCR analysis; assay type: functional, cell-based
SK-OV-3 [9] = experiment: Cytotoxicity against human SKOV3 cells after 72 hrs by sulforhodamine B assay; assay type: functional, cell-based; settings: SK-OV-3, 72 h
SK-OV-3 [10] = experiment: Inhibition of FOXM1 mRNA expression in human SKOV3 cells at 1 uM by RT-PCR analysis; assay type: functional, cell-based
SK-OV-3 [11] = experiment: Inhibition of FOXM1 protein expression in human SKOV3 cells at 1 uM by Western blot analysis; assay type: functional, cell-based
ES2 [12] = experiment: Inhibition of FOXM1 protein expression in human ES2 cells at 1 uM by Western blot analysis; assay type: functional, cell-based
ES2 [13] = experiment: Inhibition of FOXM1 mRNA expression in human ES2 cells at 1 uM by RT-PCR analysis; assay type: functional, cell-based
[14] = Cytotoxicity against human ES2 cells after 72 hrs by sulforhodamine B assay; assay type: functional, cell-based; settings: ES-2, 72 h
ES2 [15] = experiment: Inhibition of CCNB1 protein expression in human ES2 cells at 1 uM by Western blot analysis; assay type: functional, cell-based
OVCAR-3 [16] = experiment: Inhibition of FOXM1 protein expression in human OVCAR3 cells at 1 uM by Western blot analysis; assay type: functional, cell-based
ES2 [17] = experiment: Inhibition of CDC25B mRNA expression in human ES2 cells at 1 uM by RT-PCR analysis; assay type: functional, cell-based
OVCAR-3 [18] = experiment: Inhibition of CCNB1 protein expression in human OVCAR3 cells at 1 uM by Western blot analysis; assay type: functional, cell-based
ES2 [19] = experiment: Cytotoxicity against human ES2 cells at 10 uM after 72 hrs by sulforhodamine B assay; assay type: functional, cell-based
SK-OV-3 [20] = experiment: Cytotoxicity against human SKOV3 cells at 10 uM after 72 hrs by sulforhodamine B assay; assay type: functional
OVCAR-3 [21] = experiment: Cytotoxicity against human OVCAR3 cells at 10 uM after 72 hrs by sulforhodamine B assay; assay type: functional

CC(=O)Nc1ccccc1[N+](=O)[O-]
Activity (SK-OV-3 [1]): inactive
Activity (ES2 [2]): inactive
Activity (OVCAR-3 [3]): inactive

c1ccc(Nc2cc3ccccc3c3ccccc23)cc1
inhibition (SK-OV-3 [4]): Active
IC50 (OVCAR-3 [5]): 1000 nM
inhibition (SK-OV-3 [6]): Active
inhibition (SK-OV-3 [7]): Active
inhibition (ES2 [8]): Active
IC50 (SK-OV-3 [9]): 1000 nM
inhibition (SK-OV-3 [10]): Active
inhibition (SK-OV-3 [11]): Active
inhibition (ES2 [12]): Active
inhibition (ES2 [13]): Active
IC50 [14]: 1000 nM
inhibition (ES2 [15]): Active
inhibition (OVCAR-3 [16]): Active
inhibition (ES2 [17]): Active
inhibition (OVCAR-3 [18]): Active

O=C(Nc1ccc2ncccc2c1)Nc1ccc2ncccc2c1
Activity (ES2 [19]): inactive
Activity (SK-OV-3 [20]): 20%
Activity (OVCAR-3 [21]): 20%
